The text below walks through data of PubChem BioAssay (NCI).

Values joined by “and” are separate entries in the source; they are usually repeats but may differ in a detail not shown here. Identical values can stand only once.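 Five concentrations, 48 hours, 96-well plates. GI50 = concentration required for 50% inhibition of growth. Definition used: TGI = concentration required for complete inhibition of growth.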

Test systems include CCRF-CEM leukemia; SK-OV-3 ovarian; OVCAR-4 ovarian; UACC-257 melanoma; SN12C renal; A498 renal; EKVX NSCLC; SF-268 CNS; MDA-MB-231 breast; T-47D breast.
Holding throughout (assay): NCI tumour cell line growth inhibition, 48 h

As to `C/C(=C/CCC(C)[C@@H]1CC[C@]2(C)C3=C(CC[C@@]12C)[C@@]1(C)CCC(=O)C(C)(C)[C@@H]1CC3)C(=O)O` (some centres undefined), the GI50 was 0.708 µM in the assay with CCRF-CEM leukemia; 1.78 µM in the assay with SK-OV-3 ovarian; 1.27 µM with OVCAR-4 ovarian; 1.56 µM with UACC-257 melanoma; 1.21 µM with SN12C renal; 0.975 µM in the assay on A498 renal. Further, the GI50 in the assay with EKVX NSCLC was 0.705 µM; in the assay on SF-268 CNS, 1.47 µM; with MDA-MB-231 breast, 1.53 µM; in the assay on T-47D breast, 1.14 µM. In addition, the TGI with CCRF-CEM leukemia came to 2.5 µM; with SK-OV-3 ovarian it was 3.18 µM; in the assay with OVCAR-4 ovarian, 3.02 µM; with UACC-257 melanoma, 3.06 µM; with SN12C renal, 2.89 µM; in the assay on A498 renal, 2.39 µM. For the same molecule, the TGI in the assay with EKVX NSCLC turned out to be 2.19 µM; in the assay on SF-268 CNS it was 3.08 µM; in the assay with MDA-MB-231 breast it was 3.15 µM; in the assay with T-47D breast it was 3.08 µM.

Turning to `CC(C)(C)O/N=C/c1cc(NC(=S)c2ccccc2)ccc1Cl`, the TGI in the assay on CCRF-CEM leukemia was 74.5 µM; with SK-OV-3 ovarian, above 100 µM; in the assay with OVCAR-4 ovarian it was 74.7 µM; in the assay on UACC-257 melanoma it was 31 µM; in the assay on SN12C renal it was 26 µM; with A498 renal it was 27.6 µM. The TGI came out at 40.7 µM in the assay on EKVX NSCLC, 58.5 µM in the assay on SF-268 CNS, 40.3 µM in the assay with MDA-MB-231 breast and 62.5 µM in the assay with T-47D breast.

Take `O=[N+]([O-])/C=C/c1ccc2ccccc2c1`: the TGI is above 100 µM in the assay with CCRF-CEM leukemia; 9.22 µM in the assay with SK-OV-3 ovarian; 26 µM in the assay with OVCAR-4 ovarian; 6.63 µM in the assay on UACC-257 melanoma; 22.7 µM in the assay on SN12C renal; 25.7 µM in the assay on A498 renal. Besides, the TGI in the assay with EKVX NSCLC was above 55 µM; with SF-268 CNS it was above 35.6 µM; in the assay on MDA-MB-231 breast, 13.4 µM; in the assay on T-47D breast, 2.13 µM.

Turning to `CCN(CC)CCNc1n[n+]([O-])c2cc([N+](=O)[O-])ccc2[n+]1[O-]`, the GI50 in the assay on CCRF-CEM leukemia was 0.263 µM and 0.111 µM and 0.138 µM; in the assay on UACC-257 melanoma, 1.69 µM and 0.825 µM and 1.07 µM; in the assay on SN12C renal, 0.675 µM and 0.249 µM and 0.255 µM; in the assay on MDA-MB-231 breast it was 1.76 µM and 0.425 µM and 0.975 µM; in the assay on T-47D breast, 1.34 µM and 0.381 µM and 0.779 µM. Besides, the TGI was 1.1 µM and 0.841 µM and 0.999 µM in the assay on CCRF-CEM leukemia; 4.33 µM and 3.79 µM and 3.86 µM in the assay on SK-OV-3 ovarian; 3.78 µM and 5.62 µM and 6.49 µM with OVCAR-4 ovarian; 4.14 µM and 3.08 µM and 2.43 µM with UACC-257 melanoma; 2.97 µM and 2.33 µM and 2.58 µM in the assay on SN12C renal; 7.99 µM and 4.69 µM and 6.23 µM in the assay on A498 renal. Besides, the TGI is 8.38 µM and 5.78 µM and 5.3 µM with EKVX NSCLC; 8.56 µM and 4.92 µM and 5.23 µM with SF-268 CNS; 6.33 µM and 3.15 µM and 4.26 µM in the assay with MDA-MB-231 breast; 3.22 µM in the assay on T-47D breast.

Take `Nc1c(C(=O)Nc2ccccc2)sc2nc3c(cc12)C(=O)CCC3`: the GI50 in the assay on CCRF-CEM leukemia was 0.374 µM; in the assay on SK-OV-3 ovarian, 0.412 µM; in the assay on OVCAR-4 ovarian, 0.81 µM; in the assay with UACC-257 melanoma, 0.57 µM; in the assay with SN12C renal, 6.2 µM; in the assay with A498 renal it was 0.282 µM. Further, the GI50 in the assay with EKVX NSCLC is 0.627 µM; with SF-268 CNS, 1.02 µM; with MDA-MB-231 breast, 2.32 µM; in the assay on T-47D breast, 1.46 µM. Also, the TGI in the assay with CCRF-CEM leukemia, in the assay on SK-OV-3 ovarian, in the assay with OVCAR-4 ovarian, in the assay on UACC-257 melanoma, in the assay with SN12C renal and with EKVX NSCLC was above 100 µM throughout. In addition, the TGI with SF-268 CNS, with MDA-MB-231 breast and with T-47D breast was above 100 µM each time.

For the molecule `C/C(=N\NC(=S)N1CCC1)c1ccccn1`, the GI50 in the assay with CCRF-CEM leukemia is 0.00658 µM; in the assay with OVCAR-4 ovarian, 0.00312 µM; in the assay on UACC-257 melanoma it was 0.00326 µM; with SN12C renal it was 0.0289 µM; with SF-268 CNS, 0.00557 µM; in the assay with T-47D breast, 0.0395 µM. Besides, the TGI is 5.7 µM in the assay on SK-OV-3 ovarian; above 56.7 µM with OVCAR-4 ovarian; 1.42 µM with UACC-257 melanoma; above 100 µM in the assay with SN12C renal; 10.6 µM in the assay on A498 renal; 48.6 µM with EKVX NSCLC. For the same molecule, the TGI in the assay on SF-268 CNS, with MDA-MB-231 breast and with T-47D breast was above 100 µM throughout.

`N#CN1CC[C@H](C(=O)Nc2ncc(-c3ccccc3)s2)C1`: the GI50 was 0.271 µM in the assay on CCRF-CEM leukemia; 2.2 µM in the assay on SK-OV-3 ovarian; 0.673 µM with OVCAR-4 ovarian; 1.52 µM in the assay with UACC-257 melanoma; 0.471 µM in the assay on SN12C renal; 1.62 µM with A498 renal. The GI50 was 1.43 µM in the assay with EKVX NSCLC, 0.789 µM in the assay on SF-268 CNS, 0.41 µM with MDA-MB-231 breast and 0.483 µM with T-47D breast. The TGI in the assay on CCRF-CEM leukemia was above 100 µM; with SK-OV-3 ovarian it was 13.8 µM; in the assay on OVCAR-4 ovarian, 5.59 µM; with UACC-257 melanoma, 3.73 µM; in the assay with SN12C renal, 7.24 µM; in the assay on A498 renal, 3.45 µM. The TGI is 3.28 µM in the assay with EKVX NSCLC, 4.23 µM in the assay with SF-268 CNS, 4.65 µM in the assay on MDA-MB-231 breast and 3.35 µM in the assay with T-47D breast.

Regarding `C[C@]12CCc3nc(Nc4ccc(O)cc4)sc3C1=CC[C@@H]1[C@@H]2CC[C@]2(C)/C(=N/NC(N)=S)CC[C@@H]12`, the GI50 is 0.629 µM in the assay with CCRF-CEM leukemia; 1.62 µM in the assay on SK-OV-3 ovarian; 1.6 µM with OVCAR-4 ovarian; 2.04 µM with UACC-257 melanoma; 1.53 µM with SN12C renal; 2.09 µM in the assay on A498 renal. The GI50 in the assay with EKVX NSCLC is 1.57 µM; in the assay on SF-268 CNS it was 1.34 µM; in the assay on MDA-MB-231 breast it was 1.88 µM; in the assay on T-47D breast, 1.51 µM. For the same molecule, the TGI is above 100 µM in the assay with CCRF-CEM leukemia; 3.25 µM in the assay on SK-OV-3 ovarian; 3.43 µM in the assay on OVCAR-4 ovarian; 5.61 µM in the assay on UACC-257 melanoma; 3.37 µM in the assay on SN12C renal; 4.9 µM in the assay on A498 renal. Besides, the TGI in the assay with EKVX NSCLC stood at 3.61 µM; in the assay on SF-268 CNS, 3.98 µM; in the assay with MDA-MB-231 breast, 4.79 µM; in the assay on T-47D breast, 3.57 µM.

As for `O=C(Nc1ccc(-n2cc(-c3ccncc3)c(-c3ccc(Cl)c(O)c3)n2)cc1)c1cc(C(F)(F)F)cc(C(F)(F)F)c1`, the GI50 was 4.87 µM with CCRF-CEM leukemia; 2.01 µM with SK-OV-3 ovarian; 11.2 µM in the assay with OVCAR-4 ovarian; 8.95 µM in the assay with UACC-257 melanoma; 7.14 µM with SN12C renal; 14.8 µM with A498 renal. Also, the GI50 with EKVX NSCLC was 22 µM; in the assay on SF-268 CNS, 7.39 µM; with MDA-MB-231 breast, 3.29 µM; in the assay on T-47D breast, 2.16 µM. Also, the TGI in the assay on CCRF-CEM leukemia was above 100 µM; with SK-OV-3 ovarian, 6.98 µM; in the assay on OVCAR-4 ovarian, 54.6 µM; with UACC-257 melanoma, above 100 µM; with SN12C renal it was 89.9 µM; in the assay with A498 renal it was 35 µM. Also, the TGI with EKVX NSCLC was above 100 µM; in the assay with SF-268 CNS, 51.6 µM; in the assay on MDA-MB-231 breast it was 21.6 µM; with T-47D breast, 9.35 µM.
